Reference: the NIST ThermoML archive (doi:10.1021/je049534w)

Conditions: Liquid; for speed of sound: Linear variable-path acoustic interferometer

CCCCn1cc[n+](C)c1.F[B-](F)(F)F [1-butyl-3-methylimidazolium tetrafluoroborate]
Conditions	mass density [kg/m3]	speed of sound [m/s]
283.15 K, 100 kPa	–	1599.5
283.15 K, 4956 kPa	–	1612.5
283.15 K, 9954 kPa	–	1626.2
283.15 K, 20130 kPa	–	1653.1
283.15 K, 30003 kPa	–	1678.3
283.15 K, 44948 kPa	–	1714.7
283.15 K, 59705 kPa	–	1749
283.15 K, 79788 kPa	–	1793
283.15 K, 99235 kPa	–	1833.6
283.15 K, 124380 kPa	–	1882.9
283.15 K, 151416 kPa	–	1932.2
293.15 K, 100 kPa	–	1570.2
293.15 K, 5094 kPa	–	1584
293.15 K, 10075 kPa	–	1597.7
293.15 K, 20080 kPa	–	1624.4
293.15 K, 59673 kPa	–	1721
293.15 K, 98994 kPa	–	1806.1
293.15 K, 151068 kPa	–	1907.3
298.34 K, 100 kPa	1205.03	–
298.34 K, 700 kPa	1205.32	–
298.34 K, 5280 kPa	1207.44	–
298.34 K, 10600 kPa	1209.87	–
298.34 K, 15920 kPa	1212.24	–
298.34 K, 20540 kPa	1214.26	–
298.34 K, 25000 kPa	1216.18	–
298.34 K, 30710 kPa	1218.62	–
298.34 K, 35190 kPa	1220.47	–
298.34 K, 40660 kPa	1222.73	–
298.34 K, 44370 kPa	1224.21	–
298.34 K, 49660 kPa	1226.32	–
298.34 K, 54340 kPa	1228.16	–
298.34 K, 59230 kPa	1230.05	–
303.15 K, 100 kPa	–	1544.9
303.15 K, 5080 kPa	–	1558.6
303.15 K, 10091 kPa	–	1572.5
303.15 K, 20063 kPa	–	1599.5
303.15 K, 59767 kPa	–	1697
303.15 K, 99007 kPa	–	1782.6
303.15 K, 124609 kPa	–	1834
303.23 K, 100 kPa	1201.29	–
303.23 K, 8780 kPa	1205.3	–
303.23 K, 11170 kPa	1206.4	–
303.23 K, 15230 kPa	1208.22	–
303.23 K, 20270 kPa	1210.43	–
303.23 K, 24890 kPa	1212.44	–
303.23 K, 30670 kPa	1214.92	–
303.23 K, 34770 kPa	1216.66	–
303.23 K, 40020 kPa	1218.85	–
303.23 K, 44310 kPa	1220.61	–
303.23 K, 49500 kPa	1222.73	–
303.23 K, 54490 kPa	1224.75	–
303.23 K, 59820 kPa	1226.85	–
313.01 K, 100 kPa	1194.59	–
313.01 K, 4130 kPa	1196.19	–
